The values that follow come from paper PMC4869175, “Evidence that phytochrome functions as a protein kinase in plant light signalling” (Nature Communications, 2016).

Holding throughout (assay): Binding parameters of ATP by Scatchard plot using BODIPY-FL-ATP
Experiment [1] has as its target T1, D422R AsphyA mutant (Avena sativa, UniProt P06593, D422R).
T1 construct: After preparing purified full-length AsphyA mutants; made in house; host or cells: Pichia pastoris GS115
As to conditions: Scatchard plot with BODIPY-FL-ATP; result in words. The protocol: (§1) To estimate dissociation constant (Kd) and the number of binding sites (n) of ATP in AsphyA proteins, an ATP analogue BODIPY-FL-ATP (BODIPY FL 2′-(or-3′)-O-(N-(2-aminoethyl)urethane) adenosine triphosphate; Molecular Probes) was used. 0.5 μM AsphyA proteins were incubated with increasing concentration of BODIPY-FL-ATP (0.5–5 μM) for 10 min at 30 °C, and free (unbound) ATP analogue was separated from the ATP analogue-protein complex by using Amicon Ultra Centrifugal Filter with MWCO of 10,000 Da for 5 min at 4,000g. The spectrophotometric absorbance was then measured to determine the BODIPY-FL-ATP concentrations within flow-through and the complex solutions by using Shimadzu UV-1800 spectrophotometer. […] The concentrations of BODIPY-FL-ATP were also double-checked by measuring the emission intensity of BODIPY fluorophore at the excitation wavelength of 500 nm and emission wavelength of 515 nm. The fluorescence of free BODIPY-FL-ATP in the absence of any protein component was used as a linear standard curve. The Kd and n values were then calculated by a Scatchard plot of r/[BODIPY-FL-ATP]free versus r, where r is the molar ratio of [BODIPY-FL-ATP]bound to [AsphyA]total.
(§2) Supplementary Figure 12. Determination of binding parameters of ATP in AsphyA proteins. The number of binding sites (n) and dissociation constant (Kd) of ATP in AsphyA proteins were determined by Scatchard plots using an ATP analogue, BODIPY-FL-ATP (BODIPY® FL 2′-(or-3′)-O-(N-(2-aminoethyl)urethane) adenosine triphosphate). The n and Kd values were calculated from the slopes (-1/Kd) and x-axis intercepts (n) of the Scatchard plot of r/[BODIPY-FL-ATP]free versus r, where r was the molar ratio of [BODIPY-FL-ATP]bound to [AsphyA]total. The n values of full-length (FL) AsphyA and photosensory core (66-610) were both calculated at around one per polypeptide, and the Kd values were calculated at approximately 0.87 × 10^-6 M for FL-AsphyA, 0.72 × 10^-6 M for […]
(§3) level, possibly due to too low ATP binding.
(§4) (1 picture or pasted object on this page, not shown here)

The target of experiment [2] is T2, K411L AsphyA mutant (Avena sativa, UniProt P06593, K411L).
T2 construct: After preparing purified full-length AsphyA mutants; made in house; host or cells: Pichia pastoris GS115
T2 sequence (P06593 whole entry K411L): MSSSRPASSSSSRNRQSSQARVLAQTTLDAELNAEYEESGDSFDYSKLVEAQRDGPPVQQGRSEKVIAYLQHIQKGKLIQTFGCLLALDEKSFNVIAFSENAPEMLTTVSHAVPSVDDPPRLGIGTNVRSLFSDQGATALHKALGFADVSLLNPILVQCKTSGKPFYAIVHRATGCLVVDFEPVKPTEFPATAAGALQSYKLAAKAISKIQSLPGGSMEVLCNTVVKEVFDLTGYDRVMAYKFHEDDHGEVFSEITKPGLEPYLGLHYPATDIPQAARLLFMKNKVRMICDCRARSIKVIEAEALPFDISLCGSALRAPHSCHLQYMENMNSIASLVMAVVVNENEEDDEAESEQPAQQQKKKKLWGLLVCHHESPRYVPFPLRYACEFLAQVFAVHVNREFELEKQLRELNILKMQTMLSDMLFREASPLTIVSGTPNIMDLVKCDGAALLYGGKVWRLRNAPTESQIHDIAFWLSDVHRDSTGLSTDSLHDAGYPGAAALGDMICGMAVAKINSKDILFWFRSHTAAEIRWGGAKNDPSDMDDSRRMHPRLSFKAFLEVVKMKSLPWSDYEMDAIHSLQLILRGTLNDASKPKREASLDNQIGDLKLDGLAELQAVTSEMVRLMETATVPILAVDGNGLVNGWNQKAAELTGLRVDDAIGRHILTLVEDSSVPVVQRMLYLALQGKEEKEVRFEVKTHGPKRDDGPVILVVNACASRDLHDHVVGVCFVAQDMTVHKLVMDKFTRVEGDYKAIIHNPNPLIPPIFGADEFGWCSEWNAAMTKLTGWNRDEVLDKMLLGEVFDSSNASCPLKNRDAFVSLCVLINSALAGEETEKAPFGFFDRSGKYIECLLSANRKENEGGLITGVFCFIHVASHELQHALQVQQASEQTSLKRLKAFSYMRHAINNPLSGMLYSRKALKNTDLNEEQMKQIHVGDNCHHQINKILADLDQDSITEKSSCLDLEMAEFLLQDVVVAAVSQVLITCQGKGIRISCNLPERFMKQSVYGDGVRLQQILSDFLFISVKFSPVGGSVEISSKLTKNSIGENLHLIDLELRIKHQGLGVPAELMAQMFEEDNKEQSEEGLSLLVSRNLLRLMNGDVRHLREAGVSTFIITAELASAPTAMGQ
The protocol: as §1, §2, §3, §4

Experiment [3] has as its target T3, T418D AsphyA mutant (Avena sativa, UniProt P06593, T418D).
T3 construct: After preparing purified full-length AsphyA mutants; made in house; host or cells: Pichia pastoris GS115
The protocol: as §1, §2, §3, §4

Experiment [4] has as its target T4, full-length AsphyA (Avena sativa, UniProt P06593).
T4 construct: Full-length phytochrome genes of AsPHYA; made in house; host or cells: Pichia pastoris GS115
T4 sequence (P06593 1-1129): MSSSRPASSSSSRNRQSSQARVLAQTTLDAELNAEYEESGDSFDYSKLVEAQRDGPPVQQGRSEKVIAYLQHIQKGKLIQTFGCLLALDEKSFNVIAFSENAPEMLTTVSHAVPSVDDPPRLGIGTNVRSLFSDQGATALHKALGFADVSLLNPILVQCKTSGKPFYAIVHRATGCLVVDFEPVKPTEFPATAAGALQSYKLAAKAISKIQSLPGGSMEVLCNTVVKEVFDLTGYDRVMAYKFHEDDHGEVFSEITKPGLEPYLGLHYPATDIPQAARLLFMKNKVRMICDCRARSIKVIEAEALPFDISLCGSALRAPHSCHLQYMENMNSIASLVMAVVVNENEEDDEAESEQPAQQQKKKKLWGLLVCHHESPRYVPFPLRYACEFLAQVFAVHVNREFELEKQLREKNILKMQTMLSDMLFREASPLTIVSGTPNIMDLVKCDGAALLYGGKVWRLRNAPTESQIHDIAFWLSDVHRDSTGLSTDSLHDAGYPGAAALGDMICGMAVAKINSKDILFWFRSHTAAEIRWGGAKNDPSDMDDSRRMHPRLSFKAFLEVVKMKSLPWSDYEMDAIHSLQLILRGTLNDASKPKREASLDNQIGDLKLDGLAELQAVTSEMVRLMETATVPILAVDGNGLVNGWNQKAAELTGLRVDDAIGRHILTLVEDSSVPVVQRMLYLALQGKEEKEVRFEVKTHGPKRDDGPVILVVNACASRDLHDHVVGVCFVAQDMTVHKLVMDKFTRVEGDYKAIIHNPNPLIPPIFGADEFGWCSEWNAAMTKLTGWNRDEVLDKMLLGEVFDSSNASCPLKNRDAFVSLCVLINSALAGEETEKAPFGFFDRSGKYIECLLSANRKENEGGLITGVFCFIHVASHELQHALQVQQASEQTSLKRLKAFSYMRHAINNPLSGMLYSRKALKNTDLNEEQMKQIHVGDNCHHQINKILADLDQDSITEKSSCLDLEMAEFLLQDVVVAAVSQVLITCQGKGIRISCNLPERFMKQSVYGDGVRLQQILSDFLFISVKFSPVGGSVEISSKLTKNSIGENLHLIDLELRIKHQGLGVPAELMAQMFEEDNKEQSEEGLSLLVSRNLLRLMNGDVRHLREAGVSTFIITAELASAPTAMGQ
As to conditions: as restated in Discussion; Scatchard plot with BODIPY-FL-ATP; read-out: Kd value (ATP-binding site). The protocol: as §1, §2, §3, §4

The target of experiment [5] is T5, photosensory core of AsphyA (66-610) (Avena sativa, UniProt P06593).
T5 construct: the PAS-GAF-PHY photosensory core (66–610aa) were also cloned into pPIC3.5K; made in house; host or cells: Pichia pastoris GS115
T5 sequence (P06593 66-610): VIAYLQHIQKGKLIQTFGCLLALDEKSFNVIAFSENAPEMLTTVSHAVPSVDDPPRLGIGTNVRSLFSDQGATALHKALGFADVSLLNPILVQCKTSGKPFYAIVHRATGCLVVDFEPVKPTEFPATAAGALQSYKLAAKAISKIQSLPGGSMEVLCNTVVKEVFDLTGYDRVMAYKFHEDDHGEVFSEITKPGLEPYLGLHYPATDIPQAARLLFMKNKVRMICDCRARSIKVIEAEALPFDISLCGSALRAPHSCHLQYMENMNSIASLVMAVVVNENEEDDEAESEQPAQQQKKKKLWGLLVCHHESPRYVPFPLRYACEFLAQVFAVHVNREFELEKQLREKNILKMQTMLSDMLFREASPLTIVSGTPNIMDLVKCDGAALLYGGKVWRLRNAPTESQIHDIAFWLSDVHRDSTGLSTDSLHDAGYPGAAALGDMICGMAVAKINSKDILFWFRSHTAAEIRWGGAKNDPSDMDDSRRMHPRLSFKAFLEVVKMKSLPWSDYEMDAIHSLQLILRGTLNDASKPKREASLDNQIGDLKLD
As to conditions: as restated in Discussion; Scatchard plot with BODIPY-FL-ATP; read-out: Kd value (ATP-binding site). On the procedure:
as §1, §2, §3, §4

T3 sequence (P06593 whole entry T418D): as the sequence (P06593 whole entry K411L) above, with L411K, T418D counted along it
T1 sequence (P06593 whole entry D422R): as the sequence (P06593 whole entry K411L) above, with L411K, D422R counted along it

For `Nc1ncnc2c1ncn2[C@@H]1O[C@H](COP(=O)(O)OP(=O)(O)OP(=O)(O)O)[C@@H](O)[C@H]1O` [ATP], the “dissociation constant (Kd) of ATP” value in experiment [1] was “could not obtain the Kd value at micromolar level”. For the same compound, the Kd in experiment [2] was around 1320 nM; in experiment [3] it was 4760 nM; in experiment [4], 870 nM; in experiment [5], 720 nM.

For orientation: Kd means the free concentration of one partner at which half of the binding sites on the other are occupied at equilibrium, for simple one-to-one binding.
